Reference: patent US20240307362A1 (priority 2019, published 2024)
Where two headings read alike, the source gives them in different places.

What was measured:
Ba/F3-EGFR-insSVD = experiment: Ba/F3 cell survival assay, EGFR-insSVD; assay type: cell-based
Procedure: (§1) 293T cells from ATCC were transfected with pBABEpuro expression constructs for WT EGFR or EGFR-insSVD and pCL-Eco packaging vector using Fugene-6 transfection reagent from Promega. Plates were incubated at 37° C. for 48 h. Retrovirus was harvested by filtering the media supernatant through a 0.45 μm filter.
(§2) Ba/F3 cells purchased from DSMZ were grown in RPMI+10% FBS+10 ng/mL IL-3 and infected with filtered retroviral supernatant at a 1:2 dilution. Polybrene was added to a concentration of 8 μg/mL, plates were spun for 90 min, and incubated overnight at 37° C. 2 μg/mL puromycin was added to the infected cells 24 h after infection and cells were continually grown in the presence of puromycin and 10 ng/mL IL-3. Following stably expressing Ba/F3 cell lines were generated: Ba/F3-EGFR-WT, Ba/F3-EGFR-insSVD, (Ba/F3-vector-control).
For cell survival assays, Ba/F3 cells were grown to a density of 1-2 million cells per mL, spun down and resuspended in media without IL-3, and replated at a concentration 200,000-500,000 cells per mL. The cells ectopically expressing WT EGFR or EGFR-insSVD were plated with 10 ng/mL Millipore Culture grade EGF. The cells ectopically expressing pBABEpuro empty vector were plated with 10 ng/mL IL-3.
2 days later, cells were plated in 50 μL in a 384 well plate at a concentration of 4000 cells per well for cells assayed in the absence of IL-3 and 2000 cells per well for cells assayed in the presence of IL-3. 100 nL of compound was added to each well using a 100 nL pin head, and plates were incubated at 37° C. for 48 h.
Cell viability was measured by adding 20 μL of Cell Titer-Glo Luminescent Cell Viability Reagent diluted 1:3 in PBS. Plates were sealed with Perkin Elmer Top-Seal, inverted several times to mix, and immediately centrifuged at 1000 rpm for 2 min. Plates were incubated in low light conditions for 8-10 min and luminescence was measured.

Ba/F3-EGFR-WT = experiment: Ba/F3 cell survival assay, WT EGFR; assay type: cell-based
Procedure: as §1, §2
The cells ectopically expressing WT EGFR or EGFR-insSVD were plated with 10 ng/mL Millipore Culture grade EGF. The cells ectopically expressing pBABEpuro empty vector were plated with 10 ng/mL IL-3.
100 nL of compound was added to each well using a 100 nL pin head, and plates were incubated at 37° C. for 48 h.
Cell viability was measured by adding 20 μL of Cell Titer-Glo Luminescent Cell Viability Reagent diluted 1:3 in PBS. Plates were sealed with Perkin Elmer Top-Seal, inverted several times to mix, and immediately centrifuged at 1000 rpm for 2 min.

human Bub1 = human Bub1 (Homo sapiens (Human), UniProt O43683); experiment: Bub1 high ATP kinase assay (TR-FRET); assay type: biochemical
Source text: Bub1-inhibitory activity of compounds of the present invention at a high ATP concentration was quantified employing the Bub1 TR-FRET high ATP kinase assay as described in the following paragraphs.
N-terminally His6-tagged recombinant catalytic domain of human Bub1 (amino acids 704-1085), expressed in insect cells (Hi5) and purified by Ni-NTA affinity chromatography and subsequent size exclusion chromatography, was used as enzyme.

[1] = read-out: BA/F3 (insSVD) IC50, cell viability, Cell Titer-Glo, 48 h, with 10 ng/mL EGF, without IL-3
[2] = read-out: BA/F3 (wild type) IC50, cell viability, Cell Titer-Glo, 48 h, with 10 ng/mL EGF, without IL-3
[3] = read-out: Bub1 high ATP (2 mM) IC50, 2 mM ATP
[4] = Mus musculus, BaF3, 48 h, read-out: BA/F3 (wild type) IC50, cell viability, Cell Titer-Glo, 48 h, with 10 ng/mL EGF, without IL-3
[5] = Mus musculus, BaF3, 48 h, read-out: BA/F3 (insSVD) IC50, cell viability, Cell Titer-Glo, 48 h, with 10 ng/mL EGF, without IL-3

human Bub1, sequence (O43683 704-1085): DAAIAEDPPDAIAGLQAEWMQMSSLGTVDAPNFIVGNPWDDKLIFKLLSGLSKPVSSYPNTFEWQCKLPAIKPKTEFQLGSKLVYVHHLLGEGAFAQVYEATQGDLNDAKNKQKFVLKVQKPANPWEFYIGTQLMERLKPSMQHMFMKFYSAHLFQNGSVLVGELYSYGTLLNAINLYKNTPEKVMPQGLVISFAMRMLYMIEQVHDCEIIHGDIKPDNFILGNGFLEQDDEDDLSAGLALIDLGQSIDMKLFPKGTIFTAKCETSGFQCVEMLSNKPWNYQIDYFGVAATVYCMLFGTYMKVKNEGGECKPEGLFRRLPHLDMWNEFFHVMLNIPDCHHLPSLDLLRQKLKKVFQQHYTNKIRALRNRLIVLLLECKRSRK

| Compound | IC50 (Ba/F3-EGFR-insSVD; [1]) [nM] | IC50 (Ba/F3-EGFR-WT; [2]) [nM] | IC50 (human Bub1; [3]) [nM] | IC50 (human Bub1; Bub1 high ATP (2 mM) IC50, 2 mM ATP) [nM] | IC50 (Ba/F3-EGFR-WT; [4]) [nM] | IC50 (Ba/F3-EGFR-insSVD; [5]) [nM] |
| --- | --- | --- | --- | --- | --- | --- |
| Cc1cccc(Nc2c(-c3ccncc3OCC3CCO3)[nH]c3c2C(=O)NCC3)c1Cl (single isomer, unassigned; (-)) [Example 39, (−)-3-(2-chloro-3-methylanilino)-2-{3-[(oxetan-2-yl)methoxy]pyridin-4-yl}-1,5,6,7-tetrahydro-4H-pyrrolo[3,2-c]pyridin-4-one] | 473 | 1650 | 8320 |  |  |  |
| COc1c(F)cccc1Nc1c(-c2ccncc2OCC2(C)CCO2)[nH]c2c1C(=O)NCC2 (single isomer, unassigned; (+)) [Example 21, (+)-3-(3-fluoro-2-methoxyanilino)-2-{3-[(2-methyloxetan-2-yl)methoxy]pyridin-4-yl}-1,5,6,7-tetrahydro-4H-pyrrolo[3,2-c]pyridin-4-one] | 40.4 | 571 | > 20000 |  |  |  |
| COc1c(Nc2c(-c3ccncc3OCC3CCO3)[nH]c3c2C(=O)NCC3)ccc(F)c1Cl (single isomer, unassigned; (+)) [Example 15, (+)-3-(3-chloro-4-fluoro-2-methoxyanilino)-2-{3-[(oxetan-2-yl)methoxy]pyridin-4-yl}-1,5,6,7-tetrahydro-4H-pyrrolo[3,2-c]pyridin-4-one] | 168 | 2380 | > 20000 |  |  |  |
| O=C1NCCc2[nH]c(-c3ccncc3OCCC3CCO3)c(Nc3cccc(Cl)c3Cl)c21 (single isomer, unassigned) [Example 64, 3-(2,3-dichloroanilino)-2-(3-{2-[oxetan-2-yl]ethoxy}pyridin-4-yl)-1,5,6,7-tetrahydro-4H-pyrrolo[3,2-c]pyridin-4-one] | 23 | 726 |  | 5380 |  |  |
| COc1c(Nc2c(-c3ccncc3OCC3CCO3)[nH]c3c2C(=O)NCC3)ccc(F)c1Cl (single isomer, unassigned; (-)) [Example 14, (−)-3-(3-chloro-4-fluoro-2-methoxyanilino)-2-{3-[(oxetan-2-yl)methoxy]pyridin-4-yl}-1,5,6,7-tetrahydro-4H-pyrrolo[3,2-c]pyridin-4-one] | 438 |  | 16300 |  | 1660 |  |
| COc1c(Br)cccc1Nc1c(-c2ccncc2OCC2CCO2)[nH]c2c1C(=O)NCC2 (racemic) [Example 33, 3-(3-bromo-2-methoxyanilino)-2-{3-[(oxetan-2-yl)methoxy]pyridin-4-yl}-1,5,6,7-tetrahydro-4H-pyrrolo[3,2-c]pyridin-4-one] |  |  | 8060 |  | 1120 | 32.8 |
| CC1(COc2cnccc2-c2[nH]c3c(c2Nc2cccc(Cl)c2OC(F)F)C(=O)NCC3)CCO1 (racemic) [Example 74, 3-[3-chloro-2-(difluoromethoxy)anilino]-2-(3-{[2-methyloxetan-2-yl]methoxy}pyridin-4-yl)-1,5,6,7-tetrahydro-4H-pyrrolo[3,2-c]pyridin-4-one] |  |  | > 20000 |  | 1250 | 134 |
| COc1c(F)cccc1Nc1c(-c2ccncc2OCCC2CCO2)[nH]c2c1C(=O)NCC2 (racemic) [Example 43, 3-(3-fluoro-2-methoxyanilino)-2-{3-[2-(oxetan-2-yl)ethoxy]pyridin-4-yl}-1,5,6,7-tetrahydro-4H-pyrrolo[3,2-c]pyridin-4-one] |  |  | 3500 |  | 262 | 11.5 |
| COc1c(F)cccc1Nc1c(-c2ccncc2OC[C@@H]2CCO2)[nH]c2c1C(=O)NCC2 [Example 5, 3-(3-fluoro-2-methoxyanilino)-2-(3-{[(2S)-oxetan-2-yl]methoxy}pyridin-4-yl)-1,5,6,7-tetrahydro-4H-pyrrolo[3,2-c]pyridin-4-one] |  |  | > 20000 |  | 578 | 22.4 |
| O=C1NCCc2[nH]c(-c3ccncc3OCC3CCO3)c(Nc3cccc(Cl)c3Cl)c21 (single isomer, unassigned; (+)) [Example 11, (+)-3-(2,3-dichloroanilino)-2-{3-[(oxetan-2-yl)methoxy]pyridin-4-yl}-1,5,6,7-tetrahydro-4H-pyrrolo[3,2-c]pyridin-4-one] |  |  | > 20000 |  | 767 | 147 |
| COc1c(F)cccc1Nc1c(-c2ccncc2OCC2CCO2)[nH]c2c1C(=O)NCC2 (racemic) [Example 4, 3-(3-fluoro-2-methoxyanilino)-2-{3-[(oxetan-2-yl)methoxy]pyridin-4-yl}-1,5,6,7-tetrahydro-4H-pyrrolo[3,2-c]pyridin-4-one] |  |  | 17400 |  | 939 | 59.3 |
| O=C1NCCc2[nH]c(-c3ccncc3OCCC3CCO3)c(Nc3cccc(Cl)c3Cl)c21 (single isomer, unassigned) [Example 63, 3-(2,3-dichloroanilino)-2-(3-{2-[oxetan-2-yl]ethoxy}pyridin-4-yl)-1,5,6,7-tetrahydro-4H-pyrrolo[3,2-c]pyridin-4-one] |  |  | 5510 |  | 567 | 31.4 |
| Cc1cccc(Nc2c(-c3ccncc3OCC3OCC3(C)C)[nH]c3c2C(=O)NCC3)c1Cl (racemic) [Example 58, 3-(2-chloro-3-methylanilino)-2-{3-[(3,3-dimethyloxetan-2-yl)methoxy]pyridin-4-yl}-1,5,6,7-tetrahydro-4H-pyrrolo[3,2-c]pyridin-4-one] |  |  | > 20000 |  | 1430 | 106 |
| CCC1(COc2cnccc2-c2[nH]c3c(c2Nc2cccc(Cl)c2OC)C(=O)NCC3)COC1 [Example 22, 3-(3-chloro-2-methoxyanilino)-2-{3-[(3-ethyloxetan-3-yl)methoxy]pyridin-4-yl}-1,5,6,7-tetrahydro-4H-pyrrolo[3,2-c]pyridin-4-one] |  |  | 3830 |  | 852 | 57.2 |
| COc1c(Cl)cccc1Nc1c(-c2ccncc2OCC2(C)CCO2)[nH]c2c1C(=O)NCC2 (racemic) [Example 46, 3-(3-chloro-2-methoxyanilino)-2-{3-[(2-methyloxetan-2-yl)methoxy]pyridin-4-yl}-1,5,6,7-tetrahydro-4H-pyrrolo[3,2-c]pyridin-4-one] |  |  | 10200 |  | 966 | 67 |
| COc1c(Cl)cccc1Nc1c(-c2ccncc2OCC2(C)CCN2C)[nH]c2c1C(=O)NCC2 (stereo not drawn) [Example 31, 3-(3-chloro-2-methoxyanilino)-2-{3-[(1,2-dimethylazetidin-2-yl)methoxy]pyridin-4-yl}-1,5,6,7-tetrahydro-4H-pyrrolo[3,2-c]pyridin-4-one] |  |  | 7540 |  | 391 | 23.7 |
| COc1c(F)cccc1Nc1c(-c2ccncc2OCC2OCC2(C)C)[nH]c2c1C(=O)NCC2 (racemic) [Example 52, 2-{3-[(3,3-dimethyloxetan-2-yl)methoxy]pyridin-4-yl}-3-(3-fluoro-2-methoxyanilino)-1,5,6,7-tetrahydro-4H-pyrrolo[3,2-c]pyridin-4-one] |  |  | > 20000 |  | 535 | 38.1 |
| COc1c(Cl)cccc1Nc1c(-c2ccncc2OCC2OCC2(C)C)[nH]c2c1C(=O)NCC2 (racemic) [Example 49, 3-(3-chloro-2-methoxyanilino)-2-{3-[(3,3-dimethyloxetan-2-yl)methoxy]pyridin-4-yl}-1,5,6,7-tetrahydro-4H-pyrrolo[3,2-c]pyridin-4-one] |  |  | > 20000 |  | 426 | 12.5 |
| CCc1c(Cl)cccc1Nc1c(-c2ccncc2OCC2CCO2)[nH]c2c1C(=O)NCC2 (stereo not drawn) [Example 77, 3-(3-chloro-2-ethylanilino)-2-(3-{[oxetan-2-yl]methoxy}pyridin-4-yl)-1,5,6,7-tetrahydro-4H-pyrrolo[3,2-c]pyridin-4-one] |  |  | 1760 |  | 777 | 46.7 |
